Reference: patent publication US3947411A, “Novel 1-aryl-2-arylalkyl-3-or-4-[4'-(substituted-alkyl)piperazino-1']butanols- 2-or-butenes-1, and methods of manufacture thereof” (Warner-Lambert Company, priority 1972, dated 1976)
≈ marks a conversion by molar mass, not a printed value.

Legend:
Solubility in water = assay type: physicochemical; conditions: hydrochlorides or oxalates, read-out: solubilities (in water)
Procedure: The following list contains examples of those compounds which are made according to the methods disclosed. (The individual compounds are identified by elementary analyses and infrared spectra, by ultra-violet or nuclear resonance spectra, if necessary.) Individual melting points and solubilities (in water) are also given as is the method by which each compound is prepared.
The melting points and solubilities are given for the Hydrochlorides I - XVI; XVIII - XXVII; XXIX - XXXV; XXXVII - XLII; XLIV - LXII; LXIV - LXVII, and the Oxalates XVII; […]; XXXVI; LXIII.

C. albicans [1] = experiment: Minimum inhibitory concentration for fungi in presence of serum, C. albicans (Table VI); assay type: cell-based; conditions: Candida albicans; Sabouraud nutrient broth + 10% bovine serum, 28°C, 48 hours
Candida albicans = experiment: Agar well inhibition zone test against fungi, Candida albicans (Table II); conditions: quantity per well giving inhibition zone (500, 50, 5 μg tested); Sabouraud agar, 28°, 48 hours
Aspergillus niger = experiment: Agar well inhibition zone test against fungi, Aspergillus niger (Table II); conditions: quantity per well giving inhibition zone (500, 50, 5 μg tested); Sabouraud agar, 28°, 48 hours
Escherichia coli = experiment: Agar well inhibition zone test against bacteria, Escherichia coli (Table III); conditions: quantity per well giving inhibition zone (500, 50, 5 μg tested); nutrient agar, 37°, 24 hours
A. niger [2] = experiment: Minimum inhibitory concentration for fungi, tube dilution, A. niger (Table IV); conditions: Aspergillus niger, 48 h, read-out: Minimum Inhibitory Concentration, A. niger
C. albicans [3] = experiment: Minimum inhibitory concentration for fungi, tube dilution, C. albicans (Table IV); conditions: Candida albicans, 48 h, read-out: Minimum Inhibitory Concentration, C. albicans
Staphylococcus aureus = experiment: Agar well inhibition zone test against bacteria, Staphylococcus aureus (Table III); conditions: quantity per well giving inhibition zone (500, 50, 5 μg tested); nutrient agar, 37°, 24 hours
A. niger [4] = experiment: Minimum inhibitory concentration for fungi in presence of serum, A. niger (Table VI); assay type: cell-based; conditions: Aspergillus niger; Sabouraud nutrient broth + 10% bovine serum, 28°C, 48 hours
Staph. aureus = experiment: Minimum inhibitory concentration for bacteria, tube dilution, Staph. aureus (Table V); conditions: Staphylococcus aureus, 48 h, read-out: Minimum Inhibitory Concentration, Staph. aureus

solubility (Solubility in water) [mg/mL] | MIC (C. albicans [1]) [µg/mL] | MIC (A. niger [2]) [µg/mL] | MIC (C. albicans [3]) [µg/mL] | MIC (A. niger [4]) [µg/mL] | MIC (Staph. aureus) [µg/mL] | Structure (SMILES) | Inhibition Area at μg, Cand. albicans (Candida albicans) [µg] | Inhibition Area at μg, Asp. niger (Aspergillus niger) [µg] | Inhibition Area at μg, E. coli (Escherichia coli) [µg] | Inhibition Area at μg, Staph. aureus (Staphylococcus aureus) [µg]
100 (≈ 253 mM) | 64 | 128 (≈ 0.324 mM) | 64 (≈ 0.162 mM) | – | – | CC(N1CCN(CCN(C)C)CC1)C(O)(Cc1ccccc1)Cc1ccccc1 (stereo not drawn) [Compound I, 1-phenyl-2-benzyl-3-[4'-(β-dimethylamino-ethyl)-piperazino-1']-butanol-2] | 50 | 50 | 500 | 500
50 (≈ 118 mM) | – | 512 (≈ 1.21 mM) | 1020 (≈ 2.42 mM) | – | – | CCN(CC)CCN1CCN(C(C)C(O)(Cc2ccccc2)Cc2ccccc2)CC1 (stereo not drawn) [II, 1-phenyl-2-benzyl-3-[4'-(β-diethylaminoethyl)-piperazino-1']-butanol-2] | 50 | 50 | 500 | 500
200 (≈ 591 mM) | – | 256 (≈ 0.756 mM) | 256 (≈ 0.756 mM) | – | – | CC(N1CCN(C)CC1)C(O)(Cc1ccccc1)Cc1ccccc1 (stereo not shown) [LI, 1-phenyl-2-benzyl-3-[1'-methyl-piperazino-4'-]-butanol-2] | 50 | 50 | 500 | 500
< 10 | – | – | – | – | – | CC(N1CCN(c2ccccc2)CC1)C(O)(Cc1ccccc1)Cc1ccccc1 (stereo not shown) [LII, 1-phenyl-2-benzyl-3-(4'-phenyl-piperazino-1')-butanol-2] | > 500 | > 500 | > 500 | > 500
10 (≈ 24.1 mM) | – | – | – | – | – | CC(N1CCN(Cc2ccccc2)CC1)C(O)(Cc1ccccc1)Cc1ccccc1 (stereo not shown) [LIII, 1-phenyl-2-benzyl-3-(4'-benzyl-piperazino-1')-butanol-2] | > 500 | > 500 | > 500 | > 500
10 (≈ 23.3 mM) | – | – | – | – | – | Cc1cccc(CN2CCN(C(C)C(O)(Cc3ccccc3)Cc3ccccc3)CC2)c1 (stereo not shown) [LIV, 1-phenyl-2-benzyl-3-(4'-m-methyl-benzyl-piperazino-1')-butanol-2] | > 500 | > 500 | > 500 | > 500
100 (≈ 237 mM) | – | 64 (≈ 0.152 mM) | – | 64 | 1020 (≈ 2.43 mM) | OC(Cc1ccccc1)(Cc1ccccc1)CN1CCN(CCN2CCCCC2)CC1 [LIX, β,β '-diphenyl-β"-[4'-(β-piperidino-ethyl)-piperazino-1']-t-butanol] | 500 | 5 | 500 | 50
< 10 | – | – | – | – | – | CN1CCN(CC(O)(Cc2ccccc2)Cc2ccccc2)CC1 [LV, 1-phenyl-2-benzyl-3-(4'-methyl-piperazino-1')-propanol-2] | > 500 | > 500 | > 500 | > 500
10 (≈ 29.5 mM) | – | – | – | – | – | CN1CCN(CCC(O)(Cc2ccccc2)Cc2ccccc2)CC1 [LVI, 1-phenyl-2-benzyl-4-(4'-methyl-piperazino-1')-butanol-2] | 500 | 500 | 500 | 500
< 10 | – | – | – | – | – | OC(CCN1CCN(c2ccccc2)CC1)(Cc1ccccc1)Cc1ccccc1 [LVII, 1-phenyl-2-benzyl-4-(4'-phenyl-piperazino-1')-butanol-2] | > 500 | > 500 | 500 | > 500
100 (≈ 230 mM) | – | 64 (≈ 0.147 mM) | – | 8 | – | OC(CCN1CCN(CCN2CCCCC2)CC1)(Cc1ccccc1)Cc1ccccc1 [LX, 1-phenyl-2-benzyl-4-[4'-(β-piperidinoethyl)-piperazino-1']-butanol-2] | 500 | 50 | 500 | 500
100 (≈ 197 mM) | – | – | – | – | – | CN1CCN(CCCCCCN2CCN(CCC(O)(Cc3ccccc3)Cc3ccccc3)CC2)CC1 [LXI, 1-phenyl-2-benzyl-4-{4'-[w-(4"-methyl-piperazino-1")-n-hexyl]-piperazino-1'}-butanol-2] | > 500 | > 500 | > 500 | > 500
50 (≈ 97.5 mM) | – | – | > 1020 | – | > 1020 | CC(N1CCN(CCN2CCN(c3ccccc3)CC2)CC1)C(O)(Cc1ccccc1)Cc1ccccc1 (stereo not drawn) [XI, 1-phenyl-2-benzyl-3-{4'-[β-(4"-phenyl-piperazino-1")-ethyl]-piperazino-1'}-butanol-2] | 50 | 500 | > 500 | 50
100 (≈ 271 mM) | – | – | – | – | – | CC(N1CCN(CCO)CC1)C(O)(Cc1ccccc1)Cc1ccccc1 (stereo not drawn) [XLVI, 1-phenyl-2-benzyl-3-[4'-(β-hydroxyethyl)-piperazino-1']-butanol-2] | 500 | 500 | > 500 | 500
50 (≈ 91.3 mM) | – | – | – | – | – | CC(N1CCN(CCN(Cc2ccccc2)Cc2ccccc2)CC1)C(O)(Cc1ccccc1)Cc1ccccc1 (stereo not drawn) [XVI, 1-phenyl-2-benzyl-3-[4'-(β-dibenzylamino-ethyl)-piperazino-1']-butanol-2] | > 500 | > 500 | > 500 | > 500
100 (≈ 206 mM) | – | – | – | – | – | CCN(CCN1CCN(C(C)C(O)(Cc2ccccc2)Cc2ccccc2)CC1)Cc1ccccc1 (stereo not drawn) [XVII, 1-phenyl-2-benzyl-3-[4'-(β-N-ethyl-N-benzyl-aminoethyl)-piperazino-1']-butanol-2] | 500 | 500 | > 500 | > 500
10 (≈ 21.9 mM) | – | – | – | – | – | CC(N1CCN(CCN(C)c2ccccc2)CC1)C(O)(Cc1ccccc1)Cc1ccccc1 (stereo not drawn) [XVIII, 1-phenyl-2-benzyl-3-[4'-(β-N-phenyl-N-methyl-aminoethyl)-piperazino-1']-butanol-2] | > 500 | > 500 | > 500 | > 500
100 (≈ 238 mM) | – | 64 (≈ 0.153 mM) | – | – | 128 (≈ 0.305 mM) | CC(C(=Cc1ccccc1)Cc1ccccc1)N1CCN(CCN2CCOCC2)CC1 (stereo not drawn) [XXXI, 1-phenyl-2-benzyl-3-[4'-(β-morpholino-ethyl)-piperazino-1']-butene-1] | 500 | 50 | > 500 | 50
25 (≈ 57.9 mM) | – | 32 (≈ 0.0741 mM) | 16 (≈ 0.0371 mM) | – | 128 (≈ 0.297 mM) | CC1CCCN(CCN2CCN(C(C)C(=Cc3ccccc3)Cc3ccccc3)CC2)C1 (stereo not drawn) [XXXIV, 1-phenyl-2-benzyl-3-{4'-[β-(3"-methylpiperidino)-ethyl]-piperazino-1'}-butene-1] | 50 | 50 | 500 | 50
50 (≈ 98.3 mM) | 512 | 128 (≈ 0.252 mM) | 8 (≈ 0.0157 mM) | – | 16 (≈ 0.0314 mM) | CC(C(=Cc1ccccc1)Cc1ccccc1)N1CCN(CCN2CCN(Cc3ccccc3)CC2)CC1 (stereo not drawn) [XXXVII, 1-phenyl-2-benzyl-3-{4'-[β-(4"-benzylpiperazino-1")-ethyl]-piperazino-1'}-butene-1] | 5 | 5 | 500 | 5

Structure (SMILES) | solubility (Solubility in water) [mg/mL] | MIC (C. albicans [1]) [µg/mL] | MIC (A. niger [2]) [µg/mL] | MIC (C. albicans [3]) [µg/mL] | MIC (A. niger [4]) [µg/mL] | MIC (Staph. aureus) [µg/mL] | Inhibition Area at μg, Cand. albicans (Candida albicans) [µg] | Inhibition Area at μg, Asp. niger (Aspergillus niger) [µg] | Inhibition Area at μg, E. coli (Escherichia coli) [µg] | Inhibition Area at μg, Staph. aureus (Staphylococcus aureus) [µg]
CC(C(=Cc1ccccc1)Cc1ccccc1)N1CCN(CCCl)CC1 (stereo not drawn) [XLIV, 1-phenyl-2-benzyl-3-(4'-β-chloro-ethyl-piperazino-1')-butene-1] | 10 (≈ 27.1 mM) | – | > 1020 | > 1020 | – | – | 50 | 50 | 500 | 500
